Reference: patent EP1981504B1, “THIADIAZOLE DERIVATIVES FOR THE TREATMENT OF NEURO DEGENERATIVE DISEASES” (NV reMYND, priority 2006, dated 2007)
Values after ≈ are worked out from the molar mass of the structure shown.

Legend:
[1] = tested on: dopaminergic substantia nigra neurons; experiment: in vivo inhibition of paraquat-triggered loss of substantia nigra neurons (tyrosine hydroxylase immunohistochemistry); details: mice, paraquat intraperitoneal not higher than 8 mg/kg/day, compound not higher than 20 mg/kg body weight/day, 8 weeks treatment, versus vehicle
Procedure: In order to model neuronal loss in the substantia nigra region of the brain, mice were treated with paraquat (intraperitoneal) at a dose not higher than 8 mg/kg/day for a continuous period of 15-100 days. These mice were also chronically co-treated during that period with: • compound 60 (1-[4-methoxyphenylsulfonyl]-4-[3-(4-methylbenzyl)-1,2,4-thiadiazol-5-yl]-2-methylpiperazine), or • compound 32 (1-[4-methoxyphenylsulfonyl]-4-[3-(4-fluorobenzyl)-1,2,4-thiadiazol-5-yl]piperazine), or • compound 53 (1-[4-methoxyphenylsulfonyl]-4-[3-(3-methoxy-benzyl)-1,2,4-thiadiazol-5-yl]piperazine), each being administered at a dose not higher than 20 mg/kg body weight/day), or by vehicle only (no active compound). Mice treatment by means of vehicle or a compound of the invention started 2 days before administration of paraquat.
At the end of the treatment period, mice were sacrificed and the corresponding brains were used for immunohistochemical analysis. […] Using antibodies raised against tyrosin hydroxylase (anti-tyrosin hydroxylase), tyrosine hydroxylase containing neurons in the brains were detected.
Three groups of mice were treated with either paraquat and compound 53 (group 3; n=6), or paraquat and vehicle of compound 53 (group 2; n=4), or vehicle paraquat and vehicle of compound 53 (group 1; n=3). […] Per mouse, the median %TH-positive areas (of the substantia nigra regions) was determined. […]

M17-SYNwt cells = experiment: α-synuclein cytotoxicity assay (LDH leakage from paraquat-treated α-synuclein over-expressing neuroblastoma cells); format: cell-based, human; details: paraquat 32 mM, 40 hours, LDH release; for EC50: Homo sapiens, Neuroblastoma cell; for EC50 / EC50 (µg/mL): 10 point curves in duplicate; for %I: percent inhibition of synuclein cytotoxicity at most effective concentration of test compound, relative to untreated paraquat cells
Summary of the method: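 M17 neuroblastoma cells over-expressing wild-type α-synuclein were challenged with paraquat, and cytotoxicity was read as LDH release. Protection was expressed as percent reduction of paraquat-induced LDH release relative to untreated paraquat cells and control cells. Actives were retested in 10-point duplicate dose responses.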

Compound | TH-positive area of the substantia nigra [1] | EC50 (M17-SYNwt cells) | %I (M17-SYNwt cells) | EC50 (µg/mL) (M17-SYNwt cells)
COc1ccc(S(=O)(=O)N2CCN(c3nc(Cc4cccc(OC)c4)ns3)CC2)cc1 [Compound 53, 1-[4-methoxyphenylsulfonyl]-4-[3-(3-methoxybenzyl)-1,2,4-thiadiazol-5-yl]piperazine] | protects dopaminergic substantia nigra neurons against paraquat-triggered degeneration | 0.66 ng/mL (≈ 0.00143 µM) | 83% | –
Cc1ccc(Cc2nsc(N3CCN(C(=O)c4ccc(C(C)(C)C)cc4)CC3)n2)cc1 [Compound 183, 1-(4-tert-butylbenzoyl)-4-[3-(4-methylbenzyl)-1,2,4-thiadiazol-5-yl]piperazine] | – | – | 52% | –
CC1CN(c2nc(Cc3ccc(F)cc3)ns2)CCN1C(=O)c1ccc([N+](=O)[O-])cc1 (stereo not shown) [Compound 184, 1-(4-nitrobenzoyl)-4-[3-(4-fluorobenzyl)-1,2,4-thiadiazol-5-yl]-2-methylpiperazine] | – | – | 52% | –
Cc1ccccc1N1CCN(c2nc(Cc3ccc(F)cc3)ns2)CC1 [Compound 185, 1-(2-methylphenyl)-4-[3-(4-fluorobenzyl)-1,2,4-thiadiazol-5-yl]piperazine] | – | 380 ng/mL (≈ 1.03 µM) | 114% | –
CCOc1ccccc1N1CCN(c2nc(Cc3ccc(F)cc3)ns2)CC1 [Compound 186, 1-(2-ethoxyphenyl)-4-[3-(4-fluorobenzyl)-1,2,4-thiadiazol-5-yl]piperazine] | – | 2050 ng/mL (≈ 5.14 µM) | 94% | –
Fc1ccc(Cc2nsc(N3CCN(c4ccccc4F)CC3)n2)cc1 [Compound 187, 1-(2-fluorophenyl)-4-[3-(4-fluorobenzyl)-1,2,4-thiadiazol-5-yl]piperazine] | – | 2810 ng/mL (≈ 7.54 µM) | 83% | –
Fc1ccc(Cc2nsc(N3CCN(c4cccc(C(F)(F)F)c4)CC3)n2)cc1 [Compound 188, 1-(3-trifluoromethylphenyl)-4-[3-(4-fluorobenzyl)-1,2,4-thiadiazol-5-yl]piperazine] | – | – | 96% | –
O=C(c1ccc(Cl)cc1)N1CCCN(c2nc(Cc3ccc(F)cc3)ns2)CC1 [Compound 189, 1-(4-chlorobenzoyl)-4-[3-(4-fluorobenzyl)-1,2,4-thiadiazol-5-yl]-1,4-diazepane] | – | 170 ng/mL (≈ 0.394 µM) | 85% | –
Cc1ccc(C(=O)N2CCCN(c3nc(Cc4ccc(F)cc4)ns3)CC2)cc1 [Compound 190, 1-(4-methylbenzoyl)-4-[3-(4-fluorobenzyt)-1,2,4-thiadiazol-5-yl]-1,4-diazepane] | – | 2770 ng/mL (≈ 6.75 µM) | 87% | –
O=C(c1ccc2c(c1)OCO2)N1CCCN(c2nc(Cc3ccc(F)cc3)ns2)CC1 [Compound 191, 1-(1,3-benzodioxol-5-ylcarbonyl)-4-[3-(4-fluorobenzyl)-1,2,4-thiadiazol-5-yl]-1,4-diazepane] | – | – | 63% | –
COc1ccc(S(=O)(=O)N2CCN(c3nc(Cc4cccc(F)c4)ns3)CC2)cc1 [Compound 193, 1-[4-methoxyphenylsulfonyl]-4-[3-(3-fluoro-benzyl)-1,2,4-thiadiazol-5-yl]piperazine] | – | 4.8 ng/mL (≈ 0.0107 µM) | 68% | –
COc1ccc(S(=O)(=O)N2CCN(c3nc(Cc4ccccc4F)ns3)CC2)cc1 [Compound 194, 1-[4-methoxyphenylsulfonyl]-4-[3-(2-fluoro-benzyl)-1,2,4-thiadiazol-5-yl]piperazine] | – | 1.2 ng/mL (≈ 0.00268 µM) | 102% | –
COc1ccccc1S(=O)(=O)N1CCN(c2nc(Cc3ccc(F)cc3)ns2)CC1 [Compound 195, 1-[2-methoxyphenylsulfonyl]-4-[3-(4-fluoro-benzyl)-1,2,4-thiadiazol-5-yl]piperazine] | – | 25 ng/mL (≈ 0.0557 µM) | 99% | –
CCOc1ccc(S(=O)(=O)N2CCN(c3nc(Cc4ccc(F)cc4)ns3)CC2)cc1 [Compound 196, 1-[4-ethoxyphenylsulfonyl]-4-[3-(4-fluoro-benzyl)-1,2,4-thiadiazol-5-yl]piperazine] | – | 8.1 ng/mL (≈ 0.0175 µM) | 42% | –
CCc1ccc(S(=O)(=O)N2CCN(c3nc(Cc4ccc(F)cc4)ns3)CC2)cc1 [Compound 197, 1-[4-ethylphenylsulfonyl]-4-[3-(4-fluoro-benzyl)-1,2,4-thiadiazol-5-yl]piperazine] | – | 239 ng/mL (≈ 0.535 µM) | 84% | –
O=S(=O)(c1ccccc1)N1CCN(c2nc(Cc3ccc(F)cc3)ns2)CC1 [Compound 198, 1-phenylsulfonyl-4-[3-(4-fluoro-benzyl)-1,2,4-thiadiazol-5-yl]piperazine] | – | 146 ng/mL (≈ 0.349 µM) | 25% | –
COc1ccc(S(=O)(=O)N2CCN(c3nc(Cc4ccccc4)ns3)CC2)cc1 [Compound 199, 1-[4-methoxyphenylsulfonyl]-4-[3-benzyl-1,2,4-thiadiazol-5-yl]piperazine] | – | 1.6 ng/mL (≈ 0.00372 µM) | 38% | –
CCC(=O)Oc1ccc(S(=O)(=O)N2CCN(c3nc(Cc4ccc(F)cc4)ns3)CC2)cc1 [Compound 200, 1-(4-propionyloxy)benzene-sulfonyl-4-[3-(4-fluoro-benzyl)-1,2,4-thiadiazol-5-yl]piperazine] | – | 51 ng/mL (≈ 0.104 µM) | 80% | –
COc1ccc(S(=O)(=O)N2CCN(c3nc(Cc4cccc(C)c4)ns3)CC2)cc1 [Compound 201] | – | 2.1 ng/mL (≈ 0.00472 µM) | 97% | –
COc1ccc(S(=O)(=O)N2CCN(c3nc(Cc4ccccc4C)ns3)CC2)cc1 [Compound 202] | – | 7.5 ng/mL (≈ 0.0169 µM) | 63% | –
COc1ccc(S(=O)(=O)N2CCN(c3nc(Cc4ccccc4OC)ns3)CC2)cc1 [Compound 203] | – | 6.2 ng/mL (≈ 0.0135 µM) | 61% | –
COc1ccc(S(=O)(=O)N2CCN(c3nc(Cc4ccc(F)c(C)c4)ns3)CC2)cc1 [Compound 204] | – | 1 ng/mL (≈ 0.00216 µM) | 90% | –
COc1ccc(Cc2nsc(N3CCN(S(=O)(=O)c4ccc(OC)cc4)CC3)n2)cc1 [Compound 205] | – | 1.1 ng/mL (≈ 0.00239 µM) | 53% | –
COc1cccc(Cc2nsc(N3CCN(S(=O)(=O)c4ccc(Br)cc4)CC3)n2)c1 [Compound 207] | – | 28 ng/mL (≈ 0.055 µM) | 83% | –
COc1ccc(S(=O)(=O)N2CCN(c3nc(Cc4cccc(OC)c4)ns3)CC2C)cc1 (stereo not shown) [Compound 208, 1-[4-methoxyphenylsulfonyl]-4-[3-(3-methoxybenzyl)-1,2,4-thia-diazol-5-yl]-2-methyl-piperazine] | – | 3.4 ng/mL (≈ 0.00716 µM) | 92% | –
O=S(=O)(c1ccc(O)cc1)N1CCN(c2nc(Cc3ccc(F)cc3)ns2)CC1 [Compound 217, 1-(4-hydroxybenzenesulfonyl)-4-[3-(4-fluoro-benzyl)-1,2,4-thiadiazol-5-yl]piperazine] | – | – | 77% | –
N-(2,6-dichlorophenyl)-4-[3-(4-fluorobenzyl)-1,2,4-thiadiazol-5-yl]-2-methylpiperazine-1-carboxamide [Compound 21] | – | – | 70% | 0,79 µg/mL
N-(3-cyanophenyl)-4-[3-(4-fluorobenzyl)-1,2,4-thiadiazol-5-yl]-2-methylpiperazine-1-carboxamide [Compound 22] | – | – | 59% | 0,88 µg/mL
